Test results reported in ChEMBL document CHEMBL5653615 (J Biol Chem, 2013).

Columns and labels:
[1] = target: T1, Rhodopsin kinase GRK7 (Homo sapiens) (UniProt Q8WTQ7); test: Inhibition of human GRK7 at 1.82 nM by HotSpot assay relative to control
T1 sequence (whole entry): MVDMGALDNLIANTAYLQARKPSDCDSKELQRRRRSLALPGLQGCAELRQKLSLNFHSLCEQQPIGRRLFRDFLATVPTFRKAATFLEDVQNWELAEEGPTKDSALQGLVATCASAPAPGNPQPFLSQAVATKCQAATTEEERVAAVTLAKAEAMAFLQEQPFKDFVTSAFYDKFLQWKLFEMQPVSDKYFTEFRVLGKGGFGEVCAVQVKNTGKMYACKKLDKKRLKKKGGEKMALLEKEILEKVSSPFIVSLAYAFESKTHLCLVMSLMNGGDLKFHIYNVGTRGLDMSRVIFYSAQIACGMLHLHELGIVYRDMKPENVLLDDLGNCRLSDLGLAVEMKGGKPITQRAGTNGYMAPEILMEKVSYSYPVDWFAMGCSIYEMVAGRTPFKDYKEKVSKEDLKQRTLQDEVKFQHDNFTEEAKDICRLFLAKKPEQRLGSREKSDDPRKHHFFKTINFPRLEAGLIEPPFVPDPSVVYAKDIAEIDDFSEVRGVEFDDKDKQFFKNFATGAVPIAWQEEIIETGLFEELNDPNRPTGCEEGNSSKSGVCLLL

[2] = target: Serine/threonine-protein kinase PAK 2 (Homo sapiens) (UniProt Q13177); test: Inhibition of human PAK2 at 1.82 nM by HotSpot assay relative to control
[3] = target: T2, Lymphokine-activated killer T-cell-originated protein kinase (Homo sapiens) (UniProt Q96KB5); test: Inhibition of human TOPK at 1.82 nM by HotSpot assay relative to control
T2 sequence (whole entry): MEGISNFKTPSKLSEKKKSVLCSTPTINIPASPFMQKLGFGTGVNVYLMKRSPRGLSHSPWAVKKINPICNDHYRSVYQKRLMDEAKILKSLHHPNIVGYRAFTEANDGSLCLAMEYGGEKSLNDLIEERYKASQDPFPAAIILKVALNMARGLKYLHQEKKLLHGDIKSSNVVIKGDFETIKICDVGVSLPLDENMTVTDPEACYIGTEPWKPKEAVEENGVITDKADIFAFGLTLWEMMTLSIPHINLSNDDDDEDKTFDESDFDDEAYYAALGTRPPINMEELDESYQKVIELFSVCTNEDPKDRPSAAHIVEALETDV

[4] = target: Mitogen-activated protein kinase kinase kinase 10 (Homo sapiens) (UniProt Q02779); test: Inhibition of human MAP3K10 at 18.6 nM by HotSpot assay relative to control
[5] = target: T3, Serine/threonine-protein kinase BRSK2 (Homo sapiens) (UniProt Q8IWQ3); test: Inhibition of human BRSK2 at 18.6 nM by HotSpot assay relative to control
T3 sequence (whole entry): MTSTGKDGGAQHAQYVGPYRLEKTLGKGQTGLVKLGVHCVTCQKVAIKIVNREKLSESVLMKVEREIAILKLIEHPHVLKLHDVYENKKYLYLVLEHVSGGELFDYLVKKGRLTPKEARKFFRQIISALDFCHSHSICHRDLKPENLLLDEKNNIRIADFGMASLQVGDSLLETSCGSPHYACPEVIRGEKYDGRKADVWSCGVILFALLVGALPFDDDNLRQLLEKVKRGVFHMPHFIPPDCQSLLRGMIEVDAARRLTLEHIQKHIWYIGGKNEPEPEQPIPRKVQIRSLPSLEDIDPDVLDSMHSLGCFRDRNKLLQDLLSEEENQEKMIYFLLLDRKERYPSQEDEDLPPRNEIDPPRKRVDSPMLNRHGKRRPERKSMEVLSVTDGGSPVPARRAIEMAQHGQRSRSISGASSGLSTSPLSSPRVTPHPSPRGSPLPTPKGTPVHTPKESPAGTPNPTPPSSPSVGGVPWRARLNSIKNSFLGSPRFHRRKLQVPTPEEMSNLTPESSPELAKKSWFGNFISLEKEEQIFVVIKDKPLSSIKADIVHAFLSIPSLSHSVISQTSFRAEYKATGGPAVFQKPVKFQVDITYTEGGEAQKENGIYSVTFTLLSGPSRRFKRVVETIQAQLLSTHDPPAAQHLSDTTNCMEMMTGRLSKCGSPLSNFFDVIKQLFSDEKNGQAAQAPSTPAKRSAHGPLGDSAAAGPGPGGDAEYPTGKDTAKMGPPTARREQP

[6] = target: T4, Inhibitor of nuclear factor kappa-B kinase subunit alpha (Homo sapiens) (UniProt O15111); test: Inhibition of human IKKa at 18.6 nM by HotSpot assay relative to control
T4 sequence (whole entry): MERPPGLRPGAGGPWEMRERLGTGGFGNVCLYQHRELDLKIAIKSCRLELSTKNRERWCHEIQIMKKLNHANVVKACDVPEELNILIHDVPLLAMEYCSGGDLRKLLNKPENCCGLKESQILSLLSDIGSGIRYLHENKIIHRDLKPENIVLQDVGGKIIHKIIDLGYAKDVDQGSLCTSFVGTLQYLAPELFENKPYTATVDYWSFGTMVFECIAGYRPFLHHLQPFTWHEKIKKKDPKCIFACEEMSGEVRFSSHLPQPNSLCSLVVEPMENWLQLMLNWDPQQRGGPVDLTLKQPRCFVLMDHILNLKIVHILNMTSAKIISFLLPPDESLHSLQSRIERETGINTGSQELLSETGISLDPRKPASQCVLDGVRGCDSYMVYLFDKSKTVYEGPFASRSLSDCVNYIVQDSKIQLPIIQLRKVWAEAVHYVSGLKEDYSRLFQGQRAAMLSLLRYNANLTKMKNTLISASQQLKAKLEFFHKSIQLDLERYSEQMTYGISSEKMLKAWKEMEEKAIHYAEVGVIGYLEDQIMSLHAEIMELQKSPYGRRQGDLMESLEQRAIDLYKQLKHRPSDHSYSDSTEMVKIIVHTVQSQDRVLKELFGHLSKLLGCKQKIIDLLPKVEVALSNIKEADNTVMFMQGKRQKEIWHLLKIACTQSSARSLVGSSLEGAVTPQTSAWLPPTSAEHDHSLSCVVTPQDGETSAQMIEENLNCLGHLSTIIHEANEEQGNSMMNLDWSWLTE

[7] = target: Protein kinase C delta type (Homo sapiens) (UniProt Q05655); test: Inhibition of human PKCd at 18.6 nM by HotSpot assay relative to control
Sequence of Protein kinase C delta type (Homo sapiens) (Q05655 whole entry, looked up): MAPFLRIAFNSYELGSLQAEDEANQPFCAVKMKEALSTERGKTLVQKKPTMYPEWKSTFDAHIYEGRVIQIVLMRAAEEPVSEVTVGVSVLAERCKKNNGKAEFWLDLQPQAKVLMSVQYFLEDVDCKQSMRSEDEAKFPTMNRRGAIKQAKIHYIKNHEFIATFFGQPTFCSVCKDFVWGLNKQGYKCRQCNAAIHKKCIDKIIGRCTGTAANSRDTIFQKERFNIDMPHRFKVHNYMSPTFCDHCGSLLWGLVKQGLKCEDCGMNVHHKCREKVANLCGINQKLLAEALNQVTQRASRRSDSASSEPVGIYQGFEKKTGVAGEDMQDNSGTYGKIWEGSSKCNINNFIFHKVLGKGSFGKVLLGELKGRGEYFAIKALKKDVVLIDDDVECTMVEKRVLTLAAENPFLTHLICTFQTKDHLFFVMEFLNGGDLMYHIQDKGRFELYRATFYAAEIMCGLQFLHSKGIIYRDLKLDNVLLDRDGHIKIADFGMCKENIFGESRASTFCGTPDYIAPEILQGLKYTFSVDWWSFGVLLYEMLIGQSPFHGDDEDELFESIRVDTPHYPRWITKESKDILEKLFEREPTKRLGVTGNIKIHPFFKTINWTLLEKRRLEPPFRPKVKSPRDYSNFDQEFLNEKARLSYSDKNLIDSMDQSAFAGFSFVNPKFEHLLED

Sequence of Mitogen-activated protein kinase kinase kinase 10 (Homo sapiens) (Q02779 whole entry, looked up): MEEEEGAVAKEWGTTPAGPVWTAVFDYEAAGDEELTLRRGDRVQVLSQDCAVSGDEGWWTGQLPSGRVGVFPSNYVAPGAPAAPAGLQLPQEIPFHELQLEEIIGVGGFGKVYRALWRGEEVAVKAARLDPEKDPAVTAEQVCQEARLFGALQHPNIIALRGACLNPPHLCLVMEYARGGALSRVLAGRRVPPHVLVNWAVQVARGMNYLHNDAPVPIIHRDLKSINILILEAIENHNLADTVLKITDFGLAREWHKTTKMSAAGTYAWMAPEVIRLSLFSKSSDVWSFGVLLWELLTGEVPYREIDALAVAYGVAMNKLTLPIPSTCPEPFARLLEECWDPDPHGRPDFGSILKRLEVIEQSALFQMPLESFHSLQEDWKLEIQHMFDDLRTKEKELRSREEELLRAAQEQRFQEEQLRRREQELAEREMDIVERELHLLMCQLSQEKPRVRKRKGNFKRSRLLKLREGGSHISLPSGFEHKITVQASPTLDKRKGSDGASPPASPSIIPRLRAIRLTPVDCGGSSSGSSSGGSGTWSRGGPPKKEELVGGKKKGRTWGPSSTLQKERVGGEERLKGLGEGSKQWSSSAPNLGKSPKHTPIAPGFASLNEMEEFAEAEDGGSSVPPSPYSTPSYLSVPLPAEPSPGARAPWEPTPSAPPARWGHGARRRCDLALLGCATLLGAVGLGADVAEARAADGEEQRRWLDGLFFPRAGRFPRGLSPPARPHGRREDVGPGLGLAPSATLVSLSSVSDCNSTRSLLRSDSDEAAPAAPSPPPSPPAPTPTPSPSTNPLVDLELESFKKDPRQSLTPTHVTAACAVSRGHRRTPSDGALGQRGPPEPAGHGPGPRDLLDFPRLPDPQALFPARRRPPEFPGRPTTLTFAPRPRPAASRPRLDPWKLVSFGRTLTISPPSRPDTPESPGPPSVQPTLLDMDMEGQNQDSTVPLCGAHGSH
Sequence of Serine/threonine-protein kinase PAK 2 (Homo sapiens) (Q13177 whole entry): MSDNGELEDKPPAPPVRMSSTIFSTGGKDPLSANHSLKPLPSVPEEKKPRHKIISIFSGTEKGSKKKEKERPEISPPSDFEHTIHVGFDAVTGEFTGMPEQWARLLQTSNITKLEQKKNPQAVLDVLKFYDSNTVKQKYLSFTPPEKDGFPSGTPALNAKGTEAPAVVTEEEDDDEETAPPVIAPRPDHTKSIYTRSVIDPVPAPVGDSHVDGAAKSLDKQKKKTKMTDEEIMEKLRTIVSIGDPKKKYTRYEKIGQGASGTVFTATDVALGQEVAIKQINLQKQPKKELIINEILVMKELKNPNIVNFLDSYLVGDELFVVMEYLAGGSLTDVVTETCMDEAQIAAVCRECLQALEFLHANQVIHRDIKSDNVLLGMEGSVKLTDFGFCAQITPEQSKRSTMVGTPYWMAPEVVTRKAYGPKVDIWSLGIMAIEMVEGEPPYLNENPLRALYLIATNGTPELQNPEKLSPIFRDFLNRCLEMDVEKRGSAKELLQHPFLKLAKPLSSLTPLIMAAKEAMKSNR

C[C@@]1(C(=O)Nc2ccc(F)nc2)CCCN1c1nc(Nc2cc(C3CC3)n[nH]2)c2cccn2n1 gave an inhibition [1] of 4.43%, an inhibition [2] of -8.78% and an inhibition [3] of 8.44%.
In the case of C[C@]1(O)C[C@@H](c2nc(-c3ccc4ccc(-c5ccccc5)nc4c3)c3c(N)nccn32)C1, the inhibition [4] is reported as -0.06%, the inhibition [5] is reported as -4.68% and the inhibition [6] is reported as 5.65%. For the same molecule, the inhibition [7] was -2%.
